One assay concerns P388. Briefly: Antitumor activity against mouse P388 cells allografted in mouse assessed as tumor growth inhibition at 100 mg/kg relative to control. In kind it is functional.
The next assay concerns L1210. Description: Antitumor activity against mouse L1210 cells allografted in mouse at 100 mg/kg. In kind it is functional, organism-based. More on the design: dose 100 mg/kg.

Active and inactive are the calls of the source. The calls are words filed in the database; no cut-off is given here.

Consider `O=C(/C=C(\Cl)C(=O)NO)NO`, for which the T/C – broadly, the result in the treated group divided by that in the control group, in per cent – in the assay with P388 was 154%. In addition, the outcome in the assay with L1210 was inactive. As to `O=C(NO)c1cc(O)no1`, the outcome in the assay on L1210 was inactive.

Source of the values: ChEMBL document CHEMBL3244261, “3-hydroxyisoxazole-5-hydroxamic acid” (1977).
